# According to patent US7781594B2, “5-(4-methanesulfonyl-phenyl)-thiazole derivatives for the treatment of acute and chronic inflammatory diseases” (Faes Farma, S.A., priority 2008, dated 2010):
# Key:
# Type in all cases: cell-based, human
# [1] = system: PBMC from healthy volunteers; assay: Proliferative response of PBMC, 3H-thymidine incorporation; details: absence or presence of PHA, PHA plus IL-2, or anti-CD3 + anti-CD28, 4 days, FIGS. 11a and 11b
# Procedure: Faced against a mitogen stimulation, lymphocytes suffer a blastogenesis and cellular differentiation process. The method used to quantify the cellular proliferation was the assay of the incorporation of ^3[H]-Thymidine to the DNA de novo synthesized, and the emission of betha-radiation from the cellular cultures dried extracts (to which the tritiated base was added) was detected before its ending and harvesting. In the different experiments performed to study the proliferation, the purified cellular preparations were incubated in 96 microwells plain bottom plates at concentrations of 5×10^4 cells/well (200 μl final volume), in the presence of different concentrations of various mitogens with triplicate repetitions and along 4 days of culture.
# The response to a specific stimuli depended on the density and cell type studied, as well as of the culture time and of the mitogenic agent concentration. […]
# PBMC was cultured during 4 days (50,000 cells per well) at 37° C. and 5% CO2 atmosphere (Cell incubator HERA Cell 150, Thermoscientific, Thermoelectron, 63505 Lagenselbold, GE) in complete culture medium. […] The DNA-incorporated radioactive was quantified by using a betha particles counter Wallac Oy.
# TNF-alpha [2] = assay: TNF-alpha production by PBMC of healthy volunteers, Cytometric Bead Array
# TNF-alpha [3] = assay: TNF-alpha production by PBMC of healthy volunteers, ELISA
# Procedure: In order to quantify the serum cytokines concentration, the extracted blood was stored in tubes both with and without anti-coagulant (collected by antecubital venopunction and arterial catheter, respectively). Blood was allowed to coagulate at room temperature in the laboratory, further separating the serum by centrifugation (600×g during 20 minutes). Supernatant were collected, filtered, divided in aliquotes and stored at −70° C. Concentration assays for different cytokines were performed by using the commercial kits described in Table 2.
# Supernatants were unfrozen up to the room temperature and faced against the respective anti-cytokine by fixing them in the plate bottom and incubating them during a variable time. […] The results were assessed with the enzymo-immunoanalysis reader Multititer Plus (Tiertek Multiscan Plus, Flow Laboratories). […]
# Effects of compound 12 on TNF-alpha production by PBMC of healthy volunteers in the presence or in the absence of LPS were first investigated. […] Supernatant of cultures were frozen at −20° C. and the concentration of TNF-alpha was quantified with ELISA species-specific (enzyme-linked immunosorbent assay for quantitative detection of tumour necrosis factor-alpha: human TNF-alpha ELISA BM S223/4TEUCE, Bender Med System Inc, Burlinghane Calif. 94010).
compound,measurement,setting,value
"Cc1nc(OC2CCCC2)c(-c2ccc(S(C)(=O)=O)cc2)s1 [Compound 12, 4-cyclopentyloxy-5-(4-methylsulfonyl-phenyl)-2-methyl-thiazole]",Effect on the proliferative response of PBMC,[1],did not significantly modify
same,Effect on TNF-alpha production by PBMC stimulated with LPS,"TNF-alpha [2]; 10^−6 M, 10^−7 M and 10^−8 M, statistically significant (p<0.05), FIG. 3",diminished TNF-alpha production
same,"Effect on TNF-alpha secretion by PBMC, anti-CD3 and anti-CD28 stimulated or spontaneous","TNF-alpha [2]; anti-CD3 + anti-CD28, or absence of exogenous stimuli",neither TNF-alpha secretion by PBMC stimulated with monoclonal antibodies anti-CD3 and anti-CD28 nor spontaneous one (as observed in the absence of exogenous stimuli) was modified
same,Effect on TNF-alpha concentration in the supernatant of LPS-stimulated PBMC,"TNF-alpha [3]; 10^−6 M and 10^−7 M, LPS, p<0.05 vs vehicle, FIG. 2",diminished in a statistically significant manner
same,Effect on spontaneous TNF-alpha production by PBMC,"TNF-alpha [3]; 10^−6 M, no stimulus",lowered the spontaneous TNF-alpha production
